Measurements published in the NIST ThermoML archive (doi:10.1016/j.jct.2018.01.003).
Numbers after ± are expanded uncertainties.

Experiment: activity coefficient (dimensionless); of the first substance listed, at infinite dilution; xn = mol fraction of the nth substance listed
Conditions: 101.33 kPa, Liquid, Chromatography, x1 = 0

Compound | activity coefficient (328.15 K) | activity coefficient (338.15 K) | activity coefficient (348.15 K) | activity coefficient (358.15 K) | activity coefficient (368.15 K)
CCOC(C)(C)C [2-ethoxy-2-methylpropane] + CCCCCCCCCCCCCC[P+](CCCCCC)(CCCCCC)CCCCCC.N#CC(=C=[N-])C#N | 1.4 ± 0.09 | 1.45 ± 0.1 | 1.48 ± 0.1 | 1.53 ± 0.1 | 1.56 ± 0.1
CCC(C)(C)OC [2-methoxy-2-methylbutane] + CCCCCCCCCCCCCC[P+](CCCCCC)(CCCCCC)CCCCCC.N#CC(=C=[N-])C#N | 1.01 ± 0.06 | 1.06 ± 0.07 | 1.1 ± 0.07 | 1.14 ± 0.07 | 1.18 ± 0.08
C=C(C)c1ccccc1 [(1-methylethenyl)benzene] + CCCCCCCCCCCCCC[P+](CCCCCC)(CCCCCC)CCCCCC.N#CC(=C=[N-])C#N | – | 0.64 ± 0.044 | 0.678 ± 0.046 | 0.716 ± 0.048 | 0.751 ± 0.049
CC(C)=O [acetone] + CCCCCCCCCCCCCC[P+](CCCCCC)(CCCCCC)CCCCCC.N#CC(=C=[N-])C#N | 0.454 ± 0.036 | 0.466 ± 0.036 | 0.477 ± 0.037 | 0.491 ± 0.037 | 0.503 ± 0.038
c1ccccc1 [benzene] + CCCCCCCCCCCCCC[P+](CCCCCC)(CCCCCC)CCCCCC.N#CC(=C=[N-])C#N | 0.459 ± 0.036 | 0.481 ± 0.037 | 0.5 ± 0.038 | 0.519 ± 0.039 | 0.536 ± 0.039
CCCCCCCCCC [decane] + CCCCCCCCCCCCCC[P+](CCCCCC)(CCCCCC)CCCCCC.N#CC(=C=[N-])C#N | 3.09 ± 0.21 | 3.1 ± 0.21 | 3.1 ± 0.21 | 3.1 ± 0.21 | 3.1 ± 0.21
CCOCC [diethyl ether] + CCCCCCCCCCCCCC[P+](CCCCCC)(CCCCCC)CCCCCC.N#CC(=C=[N-])C#N | 0.943 ± 0.059 | 0.981 ± 0.062 | 1.01 ± 0.06 | 1.05 ± 0.07 | 1.08 ± 0.07
CC(C)OC(C)C [diisopropyl ether] + CCCCCCCCCCCCCC[P+](CCCCCC)(CCCCCC)CCCCCC.N#CC(=C=[N-])C#N | 1.5 ± 0.1 | 1.54 ± 0.1 | 1.58 ± 0.1 | 1.62 ± 0.11 | 1.66 ± 0.11
CCCOCCC [dipropyl ether] + CCCCCCCCCCCCCC[P+](CCCCCC)(CCCCCC)CCCCCC.N#CC(=C=[N-])C#N | 1.3 ± 0.08 | 1.35 ± 0.09 | 1.39 ± 0.09 | 1.43 ± 0.09 | 1.47 ± 0.1
CCc1ccccc1 [ethylbenzene] + CCCCCCCCCCCCCC[P+](CCCCCC)(CCCCCC)CCCCCC.N#CC(=C=[N-])C#N | 0.701 ± 0.047 | 0.729 ± 0.048 | 0.756 ± 0.05 | 0.783 ± 0.051 | 0.805 ± 0.052
CCCCCCC [heptane] + CCCCCCCCCCCCCC[P+](CCCCCC)(CCCCCC)CCCCCC.N#CC(=C=[N-])C#N | 2.04 ± 0.14 | 2.06 ± 0.14 | 2.08 ± 0.14 | 2.1 ± 0.14 | 2.12 ± 0.14
CCCC(=O)OC [methyl butanoate] + CCCCCCCCCCCCCC[P+](CCCCCC)(CCCCCC)CCCCCC.N#CC(=C=[N-])C#N | 0.652 ± 0.045 | 0.683 ± 0.046 | 0.709 ± 0.047 | 0.739 ± 0.049 | 0.764 ± 0.05
CCCCCCCCC [nonane] + CCCCCCCCCCCCCC[P+](CCCCCC)(CCCCCC)CCCCCC.N#CC(=C=[N-])C#N | 2.66 ± 0.18 | 2.67 ± 0.18 | 2.69 ± 0.18 | 2.7 ± 0.18 | 2.71 ± 0.18
C=CCCCCCC [oct-1-ene] + CCCCCCCCCCCCCC[P+](CCCCCC)(CCCCCC)CCCCCC.N#CC(=C=[N-])C#N | 1.81 ± 0.12 | 1.85 ± 0.12 | 1.88 ± 0.13 | 1.91 ± 0.13 | 1.94 ± 0.13

The remaining lines, values ahead:

activity coefficient (328.15 K) | activity coefficient (338.15 K) | activity coefficient (348.15 K) | activity coefficient (358.15 K) | activity coefficient (368.15 K) | Compound
0.946 ± 0.06 | 0.99 ± 0.062 | 1.02 ± 0.06 | 1.06 ± 0.07 | 1.1 ± 0.07 | COC(C)(C)C [2-methoxy-2-methylpropane] + CCCCCCCCCCCCCC[P+](CCCCCC)(CCCCCC)CCCCCC.N#CC(=C=[N-])C#N
0.412 ± 0.034 | 0.418 ± 0.035 | 0.423 ± 0.035 | 0.429 ± 0.035 | 0.434 ± 0.035 | CC(C)CO [2-methyl-1-propanol] + CCCCCCCCCCCCCC[P+](CCCCCC)(CCCCCC)CCCCCC.N#CC(=C=[N-])C#N
0.492 ± 0.037 | 0.503 ± 0.038 | 0.513 ± 0.038 | 0.526 ± 0.039 | 0.537 ± 0.039 | CC(C)(C)O [2-methylpropan-2-ol] + CCCCCCCCCCCCCC[P+](CCCCCC)(CCCCCC)CCCCCC.N#CC(=C=[N-])C#N
1.69 ± 0.11 | 1.72 ± 0.12 | 1.75 ± 0.12 | 1.78 ± 0.12 | 1.8 ± 0.1 | CCC(C)CC [3-methylpentane] + CCCCCCCCCCCCCC[P+](CCCCCC)(CCCCCC)CCCCCC.N#CC(=C=[N-])C#N
– | 0.668 ± 0.045 | 0.669 ± 0.045 | 0.671 ± 0.045 | 0.672 ± 0.046 | CC#N [acetonitrile] + CCCCCCCCCCCCCC[P+](CCCCCC)(CCCCCC)CCCCCC.N#CC(=C=[N-])C#N
0.424 ± 0.035 | 0.435 ± 0.035 | 0.445 ± 0.036 | 0.455 ± 0.036 | 0.464 ± 0.036 | CCCCO [butan-1-ol] + CCCCCCCCCCCCCC[P+](CCCCCC)(CCCCCC)CCCCCC.N#CC(=C=[N-])C#N
0.457 ± 0.036 | 0.468 ± 0.037 | 0.476 ± 0.037 | 0.486 ± 0.037 | 0.495 ± 0.038 | CCC(C)O (stereo not drawn) [butan-2-ol] + CCCCCCCCCCCCCC[P+](CCCCCC)(CCCCCC)CCCCCC.N#CC(=C=[N-])C#N
0.46 ± 0.036 | 0.477 ± 0.037 | 0.494 ± 0.038 | 0.513 ± 0.038 | 0.533 ± 0.039 | CCCC=O [butanal] + CCCCCCCCCCCCCC[P+](CCCCCC)(CCCCCC)CCCCCC.N#CC(=C=[N-])C#N
1.21 ± 0.08 | 1.22 ± 0.08 | 1.23 ± 0.08 | 1.25 ± 0.08 | 1.26 ± 0.08 | C1CCCCCC1 [cycloheptane] + CCCCCCCCCCCCCC[P+](CCCCCC)(CCCCCC)CCCCCC.N#CC(=C=[N-])C#N
1.14 ± 0.07 | 1.15 ± 0.07 | 1.16 ± 0.07 | 1.17 ± 0.07 | 1.18 ± 0.08 | C1CCCCC1 [cyclohexane] + CCCCCCCCCCCCCC[P+](CCCCCC)(CCCCCC)CCCCCC.N#CC(=C=[N-])C#N
0.906 ± 0.057 | 0.922 ± 0.058 | 0.938 ± 0.059 | 0.958 ± 0.06 | 0.973 ± 0.061 | C1=CCCCC1 [cyclohexene] + CCCCCCCCCCCCCC[P+](CCCCCC)(CCCCCC)CCCCCC.N#CC(=C=[N-])C#N
1.32 ± 0.09 | 1.33 ± 0.09 | 1.35 ± 0.09 | 1.36 ± 0.09 | 1.37 ± 0.09 | C1CCCCCCC1 [cyclooctane] + CCCCCCCCCCCCCC[P+](CCCCCC)(CCCCCC)CCCCCC.N#CC(=C=[N-])C#N
0.99 ± 0.062 | 1 ± 0.06 | 1.01 ± 0.06 | 1.03 ± 0.06 | 1.04 ± 0.07 | C1CCCC1 [cyclopentane] + CCCCCCCCCCCCCC[P+](CCCCCC)(CCCCCC)CCCCCC.N#CC(=C=[N-])C#N
0.462 ± 0.036 | 0.471 ± 0.037 | 0.477 ± 0.037 | 0.485 ± 0.037 | 0.49 ± 0.037 | CCO [ethanol] + CCCCCCCCCCCCCC[P+](CCCCCC)(CCCCCC)CCCCCC.N#CC(=C=[N-])C#N
0.653 ± 0.045 | 0.678 ± 0.046 | 0.699 ± 0.047 | 0.724 ± 0.048 | 0.746 ± 0.049 | CCOC(C)=O [ethyl acetate] + CCCCCCCCCCCCCC[P+](CCCCCC)(CCCCCC)CCCCCC.N#CC(=C=[N-])C#N
1.39 ± 0.09 | 1.42 ± 0.09 | 1.43 ± 0.09 | 1.46 ± 0.1 | 1.48 ± 0.1 | C=CCCCC [hex-1-ene] + CCCCCCCCCCCCCC[P+](CCCCCC)(CCCCCC)CCCCCC.N#CC(=C=[N-])C#N
1.77 ± 0.12 | 1.81 ± 0.12 | 1.83 ± 0.12 | 1.86 ± 0.13 | 1.88 ± 0.13 | CCCCCC [hexane] + CCCCCCCCCCCCCC[P+](CCCCCC)(CCCCCC)CCCCCC.N#CC(=C=[N-])C#N
0.39 ± 0.034 | 0.399 ± 0.034 | 0.408 ± 0.034 | 0.417 ± 0.035 | 0.424 ± 0.035 | CO [methanol] + CCCCCCCCCCCCCC[P+](CCCCCC)(CCCCCC)CCCCCC.N#CC(=C=[N-])C#N
0.65 ± 0.044 | 0.669 ± 0.045 | 0.685 ± 0.046 | 0.704 ± 0.047 | 0.721 ± 0.048 | COC(C)=O [methyl ethanoate] + CCCCCCCCCCCCCC[P+](CCCCCC)(CCCCCC)CCCCCC.N#CC(=C=[N-])C#N
0.616 ± 0.043 | 0.641 ± 0.044 | 0.663 ± 0.045 | 0.688 ± 0.046 | 0.711 ± 0.047 | CCC(=O)OC [methyl propanoate] + CCCCCCCCCCCCCC[P+](CCCCCC)(CCCCCC)CCCCCC.N#CC(=C=[N-])C#N
1.32 ± 0.09 | 1.33 ± 0.09 | 1.35 ± 0.09 | 1.36 ± 0.09 | 1.38 ± 0.09 | CC1CCCCC1 [methylcyclohexane] + CCCCCCCCCCCCCC[P+](CCCCCC)(CCCCCC)CCCCCC.N#CC(=C=[N-])C#N
